Experimental data taken from PubChem BioAssay AID298 (DTP/NCI, 2004).
Values joined by “and” are separate entries in the source; they are usually repeats but may differ in a detail not shown here. Equal values may be shown once. Results filed as inconclusive are left out.

Test system: MX-1 breast xenograft, intrarenal, nude mice, tumor weight
Experiment: NCI In Vivo Anticancer Drug Screen. Data for tumor model Human Mammary Carcinoma MX-1 Xenograft (intrarenal inoculation) in NU/NU BALB/C (nude) mice
Conditions: endpoint: mean tumor weight change, higher = larger tumour
Protocol: The antitumor activity of compounds was measured in mice bearing transplantable tumors. Survival or tumor size were measured and the results are expressed as the measurement made in the treated group (T) divided by the measurement made in the vehicle treated control group (C). The tumor model used in this assay is Human Mammary Carcinoma MX-1 Xenograft (intrarenal inoculation) in NU/NU BALB/C (nude) mice

[1] = dose: 50.0 mg/kg/injection, schedule: Q04DX003 (ip), vehicle: saline with Tween-80

**Q.** With `COc1c(C=O)c2c(c(OC)c1OC)-c1ccc(OC)c(=O)cc1[C@@H](NC(C)=O)CC2` as the compound, how does the T/C (dose: 9.37 mg/kg/injection, schedule: Q04DX003 (sc), vehicle: Klucel (hydroxypropylcellulose) (HPC)) read?
**A.** 62 % of control

**Q.** And the T/C (dose: 18.75 mg/kg/injection, schedule: Q04DX003 (sc), vehicle: Klucel (hydroxypropylcellulose) (HPC))?
**A.** 40 % of control

**Q.** What about the T/C (dose: 37.5 mg/kg/injection, schedule: Q04DX003 (sc), vehicle: Klucel (hydroxypropylcellulose) (HPC)) of the same compound?
**A.** 13 % of control

**Q.** How did the T/C (dose: 1.0 mg/kg/injection, schedule: Q01DX010 (sc), vehicle: saline + alcohol) turn out when `COC(=O)[C@@]12OC[C@]34[C@H]([C@@H](O)[C@@H]1O)[C@@]1(C)CC(=O)C(O)=C(C)[C@@H]1C[C@H]3OC(=O)[C@H](OC(=O)/C=C(\C)C(C)C)[C@@H]24` was run?
**A.** 51 % of control

**Q.** Which results are given for `CO[C@@]12[C@@H]3N[C@@H]3CN1C1=C(C(=O)C(NCCc3ccccn3)=C(C)C1=O)[C@@H]2COC(N)=O`?
**A.** T/C (dose: 6.25 mg/kg/injection, schedule: Q04DX003 (ip), vehicle: saline with Tween-80): -51 % of control; T/C (dose: 12.5 mg/kg/injection, schedule: Q04DX003 (ip), vehicle: saline with Tween-80): -84 % of control; T/C (dose: 25.0 mg/kg/injection, schedule: Q04DX003 (ip), vehicle: saline with Tween-80): -92 % of control; T/C [1]: -42 % of control

**Q.** Which T/C (dose: 150.0 mg/kg/injection, schedule: Q04DX003 (ip), vehicle: distilled water + Tween-80 + alcohol) does the source give for `S=C1CCCCN1` here?
**A.** 82 % of control

**Q.** What about the T/C (dose: 300.0 mg/kg/injection, schedule: Q04DX003 (ip), vehicle: distilled water + Tween-80 + alcohol) of the same compound?
**A.** 72 % of control

**Q.** What does the source list for `CN(C)N=Nc1ccc(C(N)=O)cc1`?
**A.** T/C [1]: 85 % of control; T/C (dose: 100.0 mg/kg/injection, schedule: Q04DX003 (ip), vehicle: saline with Tween-80): 78 % of control; T/C (dose: 200.0 mg/kg/injection, schedule: Q04DX003 (ip), vehicle: saline with Tween-80): 80 % of control

**Q.** Which T/C (dose: 150.0 mg/kg/injection, schedule: Q04DX003 (sc), vehicle: Klucel (hydroxypropylcellulose) (HPC)) does the source give for `Nc1nc(N)c2cc(CNc3ccc(C(=O)NC(CC(=O)O)CC(=O)O)cc3)ccc2n1` here?
**A.** 103 % of control

**Q.** And the T/C (dose: 300.0 mg/kg/injection, schedule: Q04DX003 (sc), vehicle: Klucel (hydroxypropylcellulose) (HPC))?
**A.** 86 % of control

**Q.** What about the T/C (dose: 600.0 mg/kg/injection, schedule: Q04DX003 (sc), vehicle: Klucel (hydroxypropylcellulose) (HPC)) of the same compound?
**A.** 91 % of control

**Q.** And the T/C (dose: 1200.0 mg/kg/injection, schedule: Q04DX003 (sc), vehicle: Klucel (hydroxypropylcellulose) (HPC))?
**A.** 101 % of control

**Q.** `CC(=O)OCC1OC([S-])C(OC(C)=O)C(OC(C)=O)C1OC(C)=O.CC[PH+](CC)CC.CC[PH+](CC)CC.[Au].[Au]` (stereo not given) was tested. Which T/C (dose: 3.13 mg/kg/injection, schedule: Q04DX003 (ip), vehicle: Klucel (hydroxypropylcellulose) (HPC)) did it give?
**A.** 110 % of control

**Q.** What about the T/C (dose: 12.5 mg/kg/injection, schedule: Q04DX003 (ip), vehicle: Klucel (hydroxypropylcellulose) (HPC)) of the same compound?
**A.** 73 % of control

**Q.** `CC(=O)O[C@H]1C(=O)[C@@]2(C)[C@H]([C@H](OC(=O)c3ccccc3)[C@]3(O)C[C@H](OC(=O)[C@H](O)[C@@H](NC(=O)c4ccccc4)c4ccccc4)C(C)=C1C3(C)C)[C@]1(OC(C)=O)CO[C@@H]1C[C@@H]2O` was tested. Which T/C (dose: 1.88 mg/kg/injection, schedule: Q01DX009 (ip), vehicle: Klucel (hydroxypropylcellulose) (HPC)) did it give?
**A.** 5 % of control and 16 % of control

**Q.** And the T/C (dose: 2.5 mg/kg/injection, schedule: Q01DX009 (ip), vehicle: Klucel (hydroxypropylcellulose) (HPC))?
**A.** 12 % of control

**Q.** And the T/C (dose: 3.75 mg/kg/injection, schedule: Q01DX009 (ip), vehicle: Klucel (hydroxypropylcellulose) (HPC))?
**A.** -80 % of control and -100 % of control

**Q.** And the T/C (dose: 4.45 mg/kg/injection, schedule: Q01DX009 (ip), vehicle: Klucel (hydroxypropylcellulose) (HPC))?
**A.** -100 % of control

**Q.** What about the T/C (dose: 5.0 mg/kg/injection, schedule: Q01DX009 (ip), vehicle: Klucel (hydroxypropylcellulose) (HPC)) of the same compound?
**A.** -61 % of control

**Q.** What about the T/C (dose: 6.67 mg/kg/injection, schedule: Q01DX009 (ip), vehicle: Klucel (hydroxypropylcellulose) (HPC)) of the same compound?
**A.** -100 % of control

**Q.** What about the T/C (dose: 7.5 mg/kg/injection, schedule: Q01DX009 (ip), vehicle: Klucel (hydroxypropylcellulose) (HPC)) of the same compound?
**A.** -100 % of control

**Q.** What about the T/C (dose: 10.0 mg/kg/injection, schedule: Q01DX009 (ip), vehicle: Klucel (hydroxypropylcellulose) (HPC)) of the same compound?
**A.** -84 % of control and -100 % of control

**Q.** What about the T/C (dose: 15.0 mg/kg/injection, schedule: Q01DX009 (ip), vehicle: Klucel (hydroxypropylcellulose) (HPC)) of the same compound?
**A.** -100 % of control

**Q.** What does the source list for `O=C1N[C@@H]([C@H]2CC[C@H](Cl)CN2)C(=O)N[C@H]1[C@H]1CC[C@H](Cl)CN1`?
**A.** T/C (dose: 0.31 mg/kg/injection, schedule: Q01DX010 (sc), vehicle: water): 62 % of control; T/C (dose: 0.63 mg/kg/injection, schedule: Q01DX010 (sc), vehicle: water): 14 % of control; T/C (dose: 1.25 mg/kg/injection, schedule: Q01DX010 (sc), vehicle: water): 1 % of control; T/C (dose: 2.5 mg/kg/injection, schedule: Q01DX010 (sc), vehicle: water): -54 % of control; T/C (dose: 5.0 mg/kg/injection, schedule: Q01DX010 (sc), vehicle: water): -87 % of control

**Q.** How did the T/C (dose: 150.0 mg/kg/injection, schedule: Q04DX003 (ip), vehicle: saline) turn out when `CC(NNC(=S)N(C)C1CCCCC1)c1cc2ccccc2cn1` (stereo not given) was run?
**A.** 80 % of control

**Q.** For `CC(=O)C(Cl)C(=O)c1c(C)[nH]n(-c2ccccc2)c1=O` (stereo not given), which T/C (dose: 150.0 mg/kg/injection, schedule: Q04DX003 (ip), vehicle: Klucel (hydroxypropylcellulose) (HPC)) is on record?
**A.** 103 % of control

**Q.** Which T/C (dose: 9.38 mg/kg/injection, schedule: Q04DX003 (sc), vehicle: suspension in saline) does the source give for `O=c1n(CC2CO2)c(=O)n(CC2CO2)n1CC1CO1` (stereo not given) here?
**A.** 46 % of control

**Q.** What about the T/C (dose: 18.75 mg/kg/injection, schedule: Q04DX003 (sc), vehicle: suspension in saline) of the same compound?
**A.** 20 % of control

**Q.** And the T/C (dose: 37.5 mg/kg/injection, schedule: Q04DX003 (sc), vehicle: suspension in saline)?
**A.** 12 % of control

**Q.** With `COc1ccc(C=C(C(=O)CCN(C)C)C(=O)CCN(C)C)cc1` as the compound, how does the T/C (dose: 50.0 mg/kg/injection, schedule: Q04DX003 (ip), vehicle: saline) read?
**A.** 93 % of control

**Q.** What about the T/C (dose: 100.0 mg/kg/injection, schedule: Q04DX003 (ip), vehicle: saline) of the same compound?
**A.** 101 % of control

**Q.** What about the T/C (dose: 200.0 mg/kg/injection, schedule: Q04DX003 (ip), vehicle: saline) of the same compound?
**A.** 96 % of control

**Q.** Which results are given for `[N-]=[N+]=CC(=O)CCC(NC(=O)OCc1ccccc1)C(=O)OCc1ccccc1` (stereo not given)?
**A.** T/C (dose: 300.0 mg/kg/injection, schedule: Q04DX003 (ip), vehicle: Klucel (hydroxypropylcellulose) (HPC)): 6 % of control and 23 % of control and 27 % of control; T/C (dose: 450.0 mg/kg/injection, schedule: Q04DX003 (ip), vehicle: Klucel (hydroxypropylcellulose) (HPC)): 20 % of control; T/C (dose: 600.0 mg/kg/injection, schedule: Q04DX003 (ip), vehicle: Klucel (hydroxypropylcellulose) (HPC)): 6 % of control and 16 % of control; T/C (dose: 900.0 mg/kg/injection, schedule: Q04DX003 (ip), vehicle: Klucel (hydroxypropylcellulose) (HPC)): 1 % of control; T/C (dose: 1200.0 mg/kg/injection, schedule: Q04DX003 (ip), vehicle: Klucel (hydroxypropylcellulose) (HPC)): 22 % of control

**Q.** How did the T/C (dose: 12.5 micrograms/kg/injection, schedule: Q04DX003 (ip), vehicle: saline + alcohol) turn out when `CC1[C@@H]2CC=C3[C@H]4CCC5Cc6nc7c(nc6C[C@@]5(C)C4CC(=O)[C@]32CO[C@]12OC(C)(C)CC2O)CC1CC[C@@H]2C3=C[C@H]4O[C@@]5(O[C@@](C)(CO)C[C@@H]5O)C(C)[C@@]4(O)[C@]3(C)[C@@H](O)CC2[C@]1(C)C7` (stereo not given in full) was run?
**A.** 123 % of control

**Q.** What about the T/C (dose: 25.0 micrograms/kg/injection, schedule: Q04DX003 (ip), vehicle: saline + alcohol) of the same compound?
**A.** 78 % of control

**Q.** And the T/C (dose: 50.0 micrograms/kg/injection, schedule: Q04DX003 (ip), vehicle: saline + alcohol)?
**A.** 118 % of control

**Q.** What about the T/C (dose: 100.0 micrograms/kg/injection, schedule: Q04DX003 (ip), vehicle: saline + alcohol) of the same compound?
**A.** 100 % of control

**Q.** With `CN(N=O)C(N)=O` as the compound, how does the T/C (dose: 25.0 mg/kg/injection, schedule: Q04DX003 (sc), vehicle: saline) read?
**A.** 80 % of control

**Q.** What about the T/C (dose: 50.0 mg/kg/injection, schedule: Q04DX003 (sc), vehicle: saline with Tween-80) of the same compound?
**A.** 9 % of control

**Q.** And the T/C (dose: 50.0 mg/kg/injection, schedule: Q04DX003 (sc), vehicle: saline)?
**A.** 26 % of control

**Q.** `C=C(C)C1C2CC3(C)C4(CO4)C4OC4C3(O)C1C(=O)O2` (stereo not given) was tested. Which T/C (dose: 0.15 mg/kg/injection, schedule: Q04DX003 (ip), vehicle: Klucel (hydroxypropylcellulose) (HPC)) did it give?
**A.** 116 % of control

**Q.** And the T/C (dose: 0.31 mg/kg/injection, schedule: Q04DX003 (ip), vehicle: Klucel (hydroxypropylcellulose) (HPC))?
**A.** 86 % of control

**Q.** And the T/C (dose: 0.62 mg/kg/injection, schedule: Q04DX003 (ip), vehicle: Klucel (hydroxypropylcellulose) (HPC))?
**A.** 106 % of control

**Q.** `c1ccc2c3c(c4c(c2c1)CN(C1CCCCC1)CO4)OCN(C1CCCCC1)C3` was tested. Which T/C (dose: 37.5 mg/kg/injection, schedule: Q04DX003 (ip), vehicle: water) did it give?
**A.** 108 % of control

**Q.** What about the T/C (dose: 75.0 mg/kg/injection, schedule: Q04DX003 (ip), vehicle: water) of the same compound?
**A.** 82 % of control and 88 % of control

**Q.** What about the T/C (dose: 150.0 mg/kg/injection, schedule: Q04DX003 (ip), vehicle: water) of the same compound?
**A.** 59 % of control

**Q.** And the T/C (dose: 300.0 mg/kg/injection, schedule: Q04DX003 (ip), vehicle: water)?
**A.** 111 % of control
